Reference: patent US11186618B2, “Dendritic-cell-targeted peptide, fusion peptide utilizing said peptide, and vaccine utilizing said fusion peptide” (The Research Foundation for Microbial Diseases of Osaka …, priority 2016, dated 2021)

How the values were obtained:
[1] = test system: antigen-specific CD8^+ CTLs; assay: IFN-γ production by immune cells of regional lymph nodes, Kras G12D peptide (Test Example 10); type: in vivo, mouse; details: 50 μg as G12D-derived peptide with 10 μg CpG oligodeoxynucleotide, subcutaneously into the ears Day 0, lymph node cells Day 7, cultured 24 hours
Procedure: A fusion peptide (G12D-FL4) was prepared by linking the N-terminus of the peptide consisting of the amino acid sequence of FL4 to the C-terminus of a partial peptide of Kras containing G12D mutation (G12D-derived peptide; LVVVGADGV (SEQ ID NO: 42); the 6th to 14th amino acid sequence from the N-terminal side of Kras containing G12D mutation). Specifically, the amino acid sequence of the fusion peptide is [Partial sequence of Kras containing G12D mutation (LVVVGADGV; SEQ ID NO: 42)]-[VSYKAIR; SEQ ID NO: 1]. The production method of the fusion peptide was the same as that of PspA-FL4 except that a DNA molecule encoding the G12D-derived peptide was used.
50 μL of physiological saline containing 50 μg of G12D-FL4 in terms of the G12D-derived peptide amount and 10 μg of CpG oligodeoxynucleotide (K3 type, product name “K3 Et-Free”, product number “CN-65003” manufactured by GeneDesign Inc.) was administered subcutaneously into the ears of 7-week old C57BL/6 mice on Day 0, regional lymph nodes were collected on Day 7 and immune cells were recovered. […]

Neuropilin-1 = Neuropilin-1 (Homo sapiens, UniProt O14786); details: reported so far; cited from earlier work
Neuropilin-1, sequence (O14786 22-923, species assumed): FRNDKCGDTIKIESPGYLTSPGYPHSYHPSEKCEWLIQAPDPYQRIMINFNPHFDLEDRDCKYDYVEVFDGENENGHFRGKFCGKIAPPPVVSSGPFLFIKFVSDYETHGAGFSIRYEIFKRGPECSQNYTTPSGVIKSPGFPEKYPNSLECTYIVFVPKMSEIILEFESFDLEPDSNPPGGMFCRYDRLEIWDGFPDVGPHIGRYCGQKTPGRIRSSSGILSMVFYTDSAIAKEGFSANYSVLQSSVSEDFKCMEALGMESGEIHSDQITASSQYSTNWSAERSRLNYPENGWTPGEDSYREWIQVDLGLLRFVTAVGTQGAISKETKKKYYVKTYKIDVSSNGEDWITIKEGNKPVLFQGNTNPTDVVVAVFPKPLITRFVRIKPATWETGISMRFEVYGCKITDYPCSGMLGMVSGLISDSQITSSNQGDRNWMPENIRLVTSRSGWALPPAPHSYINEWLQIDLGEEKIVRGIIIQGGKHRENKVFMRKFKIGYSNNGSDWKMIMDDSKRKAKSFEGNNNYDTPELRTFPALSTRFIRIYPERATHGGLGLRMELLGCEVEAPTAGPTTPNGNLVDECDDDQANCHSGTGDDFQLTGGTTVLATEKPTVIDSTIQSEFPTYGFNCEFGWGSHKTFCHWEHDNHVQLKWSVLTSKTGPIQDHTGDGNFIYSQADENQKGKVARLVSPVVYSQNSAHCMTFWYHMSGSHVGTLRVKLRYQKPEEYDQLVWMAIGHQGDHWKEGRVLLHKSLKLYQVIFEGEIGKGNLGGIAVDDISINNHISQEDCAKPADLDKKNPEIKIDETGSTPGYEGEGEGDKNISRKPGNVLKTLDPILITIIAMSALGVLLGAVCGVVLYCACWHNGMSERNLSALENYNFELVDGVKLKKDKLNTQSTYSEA

[2] = test system: antigen-specific CD8^+ CTLs; assay: Tetramer assay on regional lymph nodes, CD8+ CTL inducibility (Test Example 8); type: in vivo, mouse; details: co-administered with CpG oligodeoxynucleotide, 50 μg in terms of SL8 subcutaneously into the ears Day 0, lymph nodes Day 7
Procedure: A fusion peptide (SL8-FL4) was prepared by linking the N-terminus of the peptide consisting of the amino acid sequence of FL4 to the C-terminus of SL8 (SIINFEKL; SEQ ID NO: 40) which is an MHC class I epitope peptide in chicken ovalbumin (OVA). Specifically, the amino acid sequence of the fusion peptide is [Amino acid sequence of SL8 (SIINFEKL; SEQ ID NO: 40)]-[VSYKAIR; SEQ ID NO: 1]. The production method of the fusion peptide was the same as that of PspA-FL4 except that a DNA molecule encoding SL8 was used. In addition, each of peptide-fusion bodies (SL8-F8 and SL8-FL4Scr) in which the peptide was fused with SL8 was prepared using each of FL8 and the scramble peptide of FL4 (FL4Scr, amino acid sequence: YRSIVKA, SEQ ID NO: 41) in the same manner. […]
(§1) The tetramer assay was carried out as follows. Lymphocytes were recovered from the regional lymph nodes, were stained with fluorescently labeled antibodies against CD44 and CD8 and a fluorescently labeled tetramer recognizing the SL8 peptide presented on H-2K^b, then were analyzed using a flow cytometer.

EG7 cells = assay: Tumor size in mice transplanted with EG7 cells (Test Example 9); type: in vivo, mouse; details: EG7 tumor bearing C57BL/6 mice
Procedure: In this test, whether the regression effect of cancer was observed by SL8-specific CD8^+ CTLs induced by SL8-FL4 was evaluated. In this test, EG7 cells (cancer cells expressing OVA protein in EL4 cells derived from thymoma of C57BL/6 mouse) were used as cancer cells. Specific test methods are as follows.
1 (10^6 EG7 cells were transplanted into the abdomen of 7-week old C57BL/6 mice to prepare tumor bearing mice. 50 μL of physiological saline containing 50 μg of SL8-FL4 in terms of SL8 amount and 50 μg of CpG oligodeoxynucleotide (K3 type, product name “K3 Et-Free”, product number “CN-65003” manufactured by GeneDesign Inc.) was administered subcutaneously into the ears of mice after EG7 cells were transplanted and the tumor diameter reached about 5 mm (about 5 days after transplantation). Thereafter, tumor size was measured over time while breeding the mice. In addition, similar tests were carried out with regard to the case where 50 μL of physiological saline containing 50 μg SL8 and 50 μg of CpG oligodeoxynucleotide was administered, and the case where only physiological saline was administered (control). Meanwhile, in these tests, five mice in each group were used.

[3] = test system: antigen-specific CD8^+ CTLs; assay: Tetramer assay after pulmonary administration (Test Example 13); type: in vivo, mouse; details: pulmonary administration Day 0 and Day 7 with 10 μg CpG oligodeoxynucleotide, Day 14
Procedure: as §1
40 μL of physiological saline containing 50 μg of SL8-FL4 in terms of SL8 amount and 10 μg of CpG oligodeoxynucleotide (K3 type, product name “K3 Et-Free”, product number “CN-65003” manufactured by GeneDesign Inc.) was pulmonarily administrated to 7-week old C57BL/6 mice on Day 0 and Day 7, regional lymph nodes, lung tissues and the spleen were collected on Day 14 and a tetramer assay was performed in the same manner as Test Example 8. In addition, similar tests were conducted with regard to the case where 40 μL of physiological saline containing 50 μg SL8 alone was pulmonarily administered, the case where 50 μL of physiological saline containing 50 μg SL8 and 10 μg of CpG oligodeoxynucleotide was pulmonarily administered, and the case where only physiological saline was pulmonarily administered (control). Meanwhile, in these tests, five mice in each group were used.

[4] = test system: antigen-specific CD8^+ CTLs; assay: Tetramer assay, pulmonary versus subcutaneous administration (Test Example 14); type: in vivo, mouse; details: Day 14
Procedure: as §1
In this study, CD8^+ cytotoxic T cells inducibility by pulmonary administration and that by subcutaneous administration were compared by using SL8-FL4. 40 μL of physiological saline containing 50 μg of SL8-FL4 in terms of SL8 amount and 10 μg of CpG oligodeoxynucleotide (K3 type, product name “K3 Et-Free”, product number “CN-65003” manufactured by GeneDesign Inc.) was pulmonarily or subcutaneously administered to 7-week old C57BL/6 mice on Day 0 and Day 7, regional lymph nodes and the spleen were collected on Day 14 and a tetramer assay was performed in the same manner as Test Example 8. In addition, a test was also carried out in the case where only physiological saline was subcutaneously administered in the same manner (control). Meanwhile, in these tests, five mice in each group were used.

LVVVGADGV [G12D-derived peptide, partial peptide of Kras containing G12D mutation, reference compound]
induction of antigen-specific CD8+ CTLs (IFN-γ production ability) [1]: no induction

RPARPAR (positive control peptide)
binding to Neuropilin-1 (Neuropilin-1): bind to Neuropilin-1

[Amino acid sequence of SL8 (SIINFEKL; SEQ ID NO: 40)]-[VSYKAIR; SEQ ID NO: 1] (SIINFEKLVSYKAIR; SL8 C-terminus; Amino acid sequence of motif sequence) [SL8-FL4, fusion peptide of SL8 and FL4]
induction of antigen-specific CD8+ CTLs (tetramer assay, regional lymph nodes) [2]: strong induction
tumor regression effects (EG7 cells; 50 μg as SL8 with 50 μg CpG oligodeoxynucleotide subcutaneously into the ears, compared with physiological saline): very strong tumor regression effects
cure of tumor bearing mice (EG7 cells; co-administered with CpG oligodeoxynucleotide): completely cured mice were observed
induction of antigen-specific CD8+ CTLs in lung tissues [3]: strongly induced
induction of antigen-specific CD8+ CTLs in regional lymph nodes in the lungs [3]: strongly induced
induction of antigen-specific CD8+ CTLs in the spleen [3]: strongly induced
induction of antigen-specific CD8+ CTLs in regional lymph nodes in the lungs ([4]; pulmonary administration Day 0 and Day 7 with 10 μg CpG oligodeoxynucleotide): strong induction
induction of antigen-specific CD8+ CTLs in the spleen ([4]; subcutaneous administration Day 0 and Day 7 with 10 μg CpG oligodeoxynucleotide): Strong induction

[Partial sequence of Kras containing G12D mutation (LVVVGADGV; SEQ ID NO: 42)]-[VSYKAIR; SEQ ID NO: 1] (LVVVGADGVVSYKAIR; G12D-derived peptide; Amino acid sequence of motif sequence) [G12D-FL4, fusion peptide of G12D-derived peptide and FL4]
induction of antigen-specific CD8+ CTLs (IFN-γ production ability) [1]: very strong induction
